In patent publication US20250108099A1, “Ovomucoid for use in a method of managing blood coagulation” (Solution Shop AG, priority 2022, published 2025):

What was measured:
Format in all cases: biochemical
plasmin = molecular target: T1, plasmin (Homo sapiens, UniProt P00747); assay: Plasmin inhibition in buffered plasmin solution with chromogenic substrate S-2251 (Example 2); details: 37° C.
T1 construct: a buffered plasmin solution was used
Method: In order to analyse plasmin inhibition a buffered plasmin solution was used. The solution was incubated with duck egg ovomucoid or cyklocapron as a control. The solutions were incubated at 37° C. and the chromogenic plasmin substrate S-2251 was added and plasmin activity was measured.

Thrombin generation [1] = assay: Thrombin generation (calibrated automated thrombogram) in defibrinated normal pooled plasma, absence of fibrinogen; details: 0.5 pM TF, ovomucoid/Trasylol 50-350 U/ml, Cyklokapron 1-8 mg/ml
Description: (§1) This pilot bioequivalence study aims at investigating the effect of duck egg ovomucoid on the clotting system and assessed its activity against the known anti-thrombolytic agents (Trasylol® “aprotinin” and Cyklokapron” “transamic acid”) by means of the calibrated automated thrombogram (CAT). The CAT method is a functional sensitive assay which detects any hyper- or hypocoagulability in the clotting system, disorders in platelet function and follows up therapy with anti-haemophilia supplements, anticoagulants and antithrombotics.
In a fibrinolytic patient fibrin is unstable.
(§2) An optimal concentration of procoagulant phospholipids was used (4 μM). Two concentrations of tissue factor (TF) were added, 5 pM to study the classical extrinsic pathway and 0.5 pM to explore a pathway in which also the antihaemophilic factors (Factor VIII and IX) play a role.

Thrombin generation [2] = assay: Thrombin generation (calibrated automated thrombogram) in normal non-defibrinated plasma, presence of endogenous fibrinogen; details: for effect on extrinsic-thrombin generation: extrinsic (5 pM TF), ovomucoid/Trasylol 50-350 U/ml, Cyklokapron 1-8 mg; for effect on thrombin generation / coagulation system: low TF concentration (0.5 pM)
Description: as §1, §2
Normally fibrin (-ogen) is present during thrombin generation, therefore the above experiments were carried out in normal non-defibrinated plasma. Extrinsic-thrombin generation was conducted in normal plasma spiked with increasing amounts of duck egg ovomucoid (50-350 U/ml) and compared to Trasylol (50-350 U/ml) and to Cyklokapron (1-8 mg).

T1 sequence (P00747 97-580 limits assumed): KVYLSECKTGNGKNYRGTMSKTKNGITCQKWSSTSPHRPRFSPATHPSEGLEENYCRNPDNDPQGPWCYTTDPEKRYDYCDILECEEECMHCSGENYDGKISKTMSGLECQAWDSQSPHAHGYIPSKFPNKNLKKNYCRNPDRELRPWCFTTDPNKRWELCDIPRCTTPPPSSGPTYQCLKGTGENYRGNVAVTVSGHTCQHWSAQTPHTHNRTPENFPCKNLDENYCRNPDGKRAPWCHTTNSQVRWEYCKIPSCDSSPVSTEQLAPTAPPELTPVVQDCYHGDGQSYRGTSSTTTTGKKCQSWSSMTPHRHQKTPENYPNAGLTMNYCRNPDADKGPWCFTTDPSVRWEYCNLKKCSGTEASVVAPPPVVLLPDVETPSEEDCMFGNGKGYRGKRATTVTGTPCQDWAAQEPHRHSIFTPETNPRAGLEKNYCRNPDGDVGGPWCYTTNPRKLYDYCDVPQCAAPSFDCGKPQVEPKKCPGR
T1 sequence (P00747 581-810 limits assumed): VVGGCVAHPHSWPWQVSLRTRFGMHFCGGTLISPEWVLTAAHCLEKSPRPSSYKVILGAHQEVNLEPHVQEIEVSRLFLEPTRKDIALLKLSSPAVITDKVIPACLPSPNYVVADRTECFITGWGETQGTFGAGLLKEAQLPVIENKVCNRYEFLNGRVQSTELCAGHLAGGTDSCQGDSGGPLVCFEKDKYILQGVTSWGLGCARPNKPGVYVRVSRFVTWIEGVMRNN

Row | inhibitory effect on plasmin (plasmin) | Molecule | effect on thrombin generation (Thrombin generation [1]) | effect on extrinsic-thrombin generation (Thrombin generation [2]) | effect on thrombin generation / coagulation system (Thrombin generation [2])
1 | inhibitory effect on plasmin | NC[C@H]1CC[C@H](C(=O)O)CC1 [Cyklokapron, transamic acid] | increased the thrombin generation in a dose-dependent manner | hardly any activity | procoagulant
2 | – | aprotinin [Trasylol] | inhibited thrombin generation dose-dependently | hardly any activity | dose-dependently anticoagulant
